Here are results for eleven molecules from ChEMBL document CHEMBL1201862, “PubChem BioAssay data set” (2004).

Among the test systems are HL-60; U-251; NCI-H226; UACC-62; COLO 205; SF-268; A549; KM12; SNB-19; M14; SF-539; EKVX; MDA-MB-435; NCI-H23; MCF7; SN12C; SNB-75; SK-MEL-28; SF-295.
What all share (assay): NCI tumour cell line growth inhibition, 48 h

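Tested at 5 concentrations; 48 h exposure; 96-well plates; endpoints linearly interpolated, else capped at highest concentration. GI50 is the concentration that inhibits growth by half.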 Active and inactive are the calls of the source. No stated cut-off is given here; in the data, active = GI50 up to about 1.1 µM and inactive = higher.

For the molecule `CC1=C2NCN(C)N=C2C(C#N)(C#N)C1(C#N)C#N`, the GI50 is 1.93 µM (inactive) with HL-60; 28.9 µM (inactive) in the experiment on U-251; > 50.7 µM (inactive) in the experiment with NCI-H226; 20.8 µM (inactive) with UACC-62; 5 µM (inactive) in the experiment on COLO 205; 32.2 µM (inactive) in the experiment on SF-268. Besides, the GI50 was > 78.5 µM (inactive) with A549; > 65.9 µM (inactive) with KM12; 36.9 µM (inactive) with SNB-19; 23.8 µM (inactive) in the experiment with M14; 27 µM (inactive) in the experiment on SF-539; 26 µM (inactive) in the experiment on EKVX. Also, the GI50 was 21.7 µM (inactive) in the experiment with MDA-MB-435; 14.1 µM (inactive) in the experiment with NCI-H23; 19.8 µM (inactive) in the experiment on MCF7; 19.5 µM (inactive) in the experiment on SN12C; > 51.1 µM (inactive) in the experiment with SNB-75; 21.6 µM (inactive) in the experiment with SK-MEL-28. Besides, the GI50 in the experiment with SF-295 is > 100 µM (inactive).

As for `CCOC(=O)c1c(SC(=O)c2ccc(Cl)cc2)n(-c2ccccc2)c(=S)n(-c2ccccc2)c1=O`, the GI50 in the experiment with HL-60, with U-251, with NCI-H226, in the experiment on UACC-62, in the experiment on COLO 205 and with SF-268 was > 100 µM (inactive) in each case. Moreover, the GI50 in the experiment on A549, in the experiment with KM12, with SNB-19, with M14, in the experiment on SF-539 and in the experiment on EKVX was > 100 µM (inactive) in each case. In addition, the GI50 with MDA-MB-435, in the experiment with NCI-H23, in the experiment on MCF7, in the experiment with SN12C, in the experiment with SNB-75 and in the experiment on SK-MEL-28 was > 100 µM (inactive) each time. In the experiment on SF-295, the GI50 was > 100 µM (inactive).

Regarding `COC(=O)c1cc(C)ccc1CC(Cc1ccc(C)cc1)C(=O)OC` (centres undefined), the GI50 in the experiment with HL-60 is 4.37 µM (inactive); in the experiment on U-251, 42.1 µM (inactive); with NCI-H226 it was > 47.4 µM (inactive); in the experiment with UACC-62, > 100 µM (inactive); in the experiment with COLO 205, 14.8 µM (inactive); with SF-268, 7.52 µM (inactive). Also, the GI50 in the experiment on A549 is 12.9 µM (inactive); with KM12, 10.8 µM (inactive); in the experiment on SNB-19, > 100 µM (inactive); in the experiment on M14 it was 20.9 µM (inactive); with SF-539 it was 27.5 µM (inactive); in the experiment with EKVX it was 11.1 µM (inactive). In addition, the GI50 in the experiment with MDA-MB-435 is 31 µM (inactive); in the experiment with NCI-H23, 9.4 µM (inactive); in the experiment with MCF7, 26.3 µM (inactive); in the experiment with SN12C it was > 65.5 µM (inactive); with SNB-75, 6.78 µM (inactive); in the experiment on SK-MEL-28, 67.1 µM (inactive). Further, in the experiment with SF-295, the GI50 was 27.3 µM (inactive).

For the molecule `COc1cc(COC(=O)N2CCCCC2C(=O)O)c([N+](=O)[O-])cc1OC` (centres undefined), the GI50 in the experiment with HL-60, with U-251, in the experiment on NCI-H226, in the experiment with UACC-62, in the experiment with COLO 205 and in the experiment with SF-268 was > 100 µM (inactive) in each case. Also, the GI50 with A549, with KM12, in the experiment with SNB-19, in the experiment on M14, in the experiment on SF-539 and in the experiment with EKVX was > 100 µM (inactive) in each case. Further, the GI50 in the experiment with MDA-MB-435, in the experiment on NCI-H23, in the experiment on MCF7, in the experiment on SN12C, in the experiment with SNB-75 and in the experiment with SK-MEL-28 was > 100 µM (inactive) each time. Moreover, in the experiment with SF-295, the GI50 was > 100 µM (inactive).

On to `O=C(O)CSC1=NC(=O)C2(NN1)c1ccccc1-c1ccccc12`, for which the GI50 in the experiment with HL-60, in the experiment with NCI-H226, in the experiment on UACC-62, with COLO 205, in the experiment with SF-268 and with A549 was > 10 µM (inactive) throughout. Moreover, the GI50 in the experiment with KM12, in the experiment on SNB-19, in the experiment with M14, in the experiment with SF-539, in the experiment on EKVX and in the experiment on MDA-MB-435 was > 10 µM (inactive) throughout. For the same molecule, the GI50 with NCI-H23, in the experiment with MCF7, in the experiment with SN12C, in the experiment on SNB-75, in the experiment on SK-MEL-28 and with SF-295 was > 10 µM (inactive) each time.

Take `N=C(N)NCCCC(NC(=O)OCCCCCCn1ccc(N)nc1=O)C(=O)O` (centres undefined): the GI50 in the experiment on HL-60 is > 100 µM (inactive); in the experiment on U-251 it was > 100 µM (inactive); with NCI-H226 it was 0.418 µM (active); in the experiment with UACC-62, > 100 µM (inactive); in the experiment with COLO 205, > 100 µM (inactive); with SF-268 it was > 100 µM (inactive). Further, the GI50 with A549, with KM12, in the experiment with SNB-19, with M14, in the experiment with SF-539 and with EKVX was > 100 µM (inactive) each time. Also, the GI50 in the experiment on MDA-MB-435, in the experiment with NCI-H23, in the experiment on MCF7, in the experiment on SN12C, with SNB-75 and with SK-MEL-28 was > 100 µM (inactive) each time. For the same molecule, the GI50 with SF-295 was > 100 µM (inactive).

For the molecule `CCCC(=O)NC(Nc1cc(C)ccn1)(C(=O)OCC)C(F)(F)F` (centres undefined), the GI50 in the experiment with HL-60, with U-251, in the experiment on NCI-H226, in the experiment with UACC-62, with COLO 205 and in the experiment on SF-268 was > 100 µM (inactive) each time. In addition, the GI50 in the experiment on A549, in the experiment with KM12, in the experiment on SNB-19, with M14, with SF-539 and with EKVX was > 100 µM (inactive) in each case. The GI50 in the experiment with MDA-MB-435, in the experiment on NCI-H23, in the experiment with MCF7, with SN12C, in the experiment with SNB-75 and in the experiment on SK-MEL-28 was > 100 µM (inactive) in each case. In the experiment with SF-295, the GI50 is > 100 µM (inactive).

Take `[O-][S+](Nc1ccccc1)c1ccccc1Oc1ccccc1` (centres undefined): the GI50 with HL-60 was 25.5 µM (inactive); with U-251 it was 22 µM (inactive); in the experiment on NCI-H226, 30.4 µM (inactive); with COLO 205 it was > 100 µM (inactive); with SF-268 it was 16.3 µM (inactive); in the experiment with A549, 27 µM (inactive). In addition, the GI50 was 18.8 µM (inactive) in the experiment on KM12; 38.9 µM (inactive) in the experiment with SNB-19; 24.5 µM (inactive) in the experiment on M14; 14.6 µM (inactive) in the experiment on SF-539; 26 µM (inactive) in the experiment on EKVX; 40.8 µM (inactive) with MDA-MB-435. Further, the GI50 was 29.8 µM (inactive) in the experiment on NCI-H23; 60 µM (inactive) in the experiment on MCF7; 86.7 µM (inactive) in the experiment with SN12C; 28.6 µM (inactive) in the experiment on SNB-75; 33.5 µM (inactive) in the experiment on SK-MEL-28; 28.2 µM (inactive) with SF-295.

For `NC1=C(N2CCOCC2)C(=O)NC2=N/C(=C\c3ccccc3O)C(=O)N21`, the GI50 in the experiment on HL-60 was 41.6 µM (inactive); in the experiment on U-251, > 100 µM (inactive); with NCI-H226, 59.6 µM (inactive); in the experiment with COLO 205, > 100 µM (inactive); in the experiment with SF-268, > 100 µM (inactive); in the experiment with A549, > 100 µM (inactive). Moreover, the GI50 with KM12, in the experiment on SNB-19, in the experiment on M14, in the experiment with SF-539, with EKVX and in the experiment on MDA-MB-435 was > 100 µM (inactive) throughout. For the same molecule, the GI50 in the experiment on NCI-H23, with MCF7, in the experiment on SN12C, in the experiment with SNB-75, with SK-MEL-28 and in the experiment on SF-295 was > 100 µM (inactive) each time.

Turning to `CC(C)CCn1nc(N)c2nc3ccccc3nc21`, the GI50 was 41.6 µM (inactive) in the experiment with HL-60; > 100 µM (inactive) in the experiment on U-251; 61.8 µM (inactive) in the experiment on NCI-H226; > 100 µM (inactive) in the experiment with UACC-62; > 100 µM (inactive) with SF-268; > 100 µM (inactive) with A549. The GI50 in the experiment with KM12, in the experiment on SNB-19, with M14, in the experiment with SF-539, in the experiment with EKVX and in the experiment with MDA-MB-435 was > 100 µM (inactive) throughout. Moreover, the GI50 in the experiment with NCI-H23 was > 100 µM (inactive); with MCF7, 72.8 µM (inactive); with SN12C it was > 100 µM (inactive); in the experiment on SNB-75 it was > 100 µM (inactive); in the experiment on SK-MEL-28 it was > 100 µM (inactive); in the experiment with SF-295, > 100 µM (inactive).

With `CC(=O)Nc1ccc2nc(-c3ccccn3)c(-c3ccccn3)nc2c1`, the GI50 in the experiment on HL-60, in the experiment with U-251, in the experiment on NCI-H226, in the experiment on UACC-62, in the experiment with COLO 205 and with SF-268 was > 100 µM (inactive) each time. Besides, the GI50 in the experiment on A549, in the experiment with KM12, in the experiment with SNB-19, in the experiment with M14, with SF-539 and with EKVX was > 100 µM (inactive) each time. Besides, the GI50 with MDA-MB-435, in the experiment on MCF7, in the experiment with SN12C, in the experiment with SNB-75, in the experiment on SK-MEL-28 and in the experiment on SF-295 was > 100 µM (inactive) each time.
